Read-outs that look alike come from different tables or passages of the source.
Legend:
SARS-CoV-2 = test: microbe, parasite or virus in culture; assay type: cell-based
[1] = system: Recombinant Respiratory Syncytial virus strain A2 containing the firefly luciferase reporter (RSV-Fluc); test: microbe, parasite or virus in culture; assay type: cell-based; conditions: human respiratory syncytial virus, NHBE
MT4 cytotoxicity (CC50) = conditions: human, MT4 cells
[2] = Severe acute respiratory syndrome coronavirus 2, read-out: SARS EC50
[3] = 72 h, read-out: RSV-Fluc EC50 (NHBE), NHBE cells, three days, Table 2

## CCCCCCCC/C=C\CCCCCCCCOC[C@H](COP(=O)(O)OC[C@H]1O[C@@](C#N)(c2ccc3c(N)ncnn23)[C@H](O)[C@@H]1O)OCc1ccccc1 [Example 130, ((2R,3S,4R,5R)-5-(4-aminopyrrolo[2,1-f][1,2,4]triazin-7-yl)-5-cyano-3,4-dihydroxytetrahydrofuran-2-yl)methyl ((R)-2-(benzyloxy)-3-(((Z)-octadec-9-en-1-yl)oxy)propyl) hydrogen phosphate]
SARS-CoV-2; [2]
  EC50: 110 nM
[1]; read-out: RSV EC50, Table 4
  EC50: 39 nM
MT4 cytotoxicity (CC50); MT4 CC50, Table 4
  CC50: 3560 nM

## CCCCCCCCCCCCCCCCCCOC[C@H](COP(=O)(O)OC[C@H]1O[C@@](C#N)(c2ccc3c(N)ncnn23)[C@H](O)[C@@H]1O)OCc1ccc(C#N)nc1 [Example 116, [(2R,3S,4R,5R)-5-(4-aminopyrrolo[2,1-f][1,2,4]triazin-7-yl)-5-cyano-3,4-dihydroxy-tetrahydrofuran-2-yl]methyl [(2R)-2-[(6-cyano-3-pyridyl)methoxy]-3-octadecoxy-propyl] hydrogen phosphate]
SARS-CoV-2; [2]
  EC50: 170 nM
[1]; read-out: RSV EC50, Table 4
  EC50: 26 nM
MT4 cytotoxicity (CC50); MT4 CC50, Table 4
  CC50: 690 nM

## CCCCCCCCCCCCCCCCCCOC[C@H](COP(=O)(O)OC[C@H]1O[C@@](C#N)(c2ccc3c(N)ncnn23)[C@H](O)[C@@H]1O)OCC(C)C [Example 46, ((2R,3S,4R,5R)-5-(4-aminopyrrolo[2,1-f][1,2,4]triazin-7-yl)-5-cyano-3,4-dihydroxytetrahydrofuran-2-yl)methyl ((R)-2-isobutoxy-3-(octadecyloxy)propyl) hydrogen phosphate]
SARS-CoV-2; [2]
  EC50: 2470 nM
[1]; [3]
  EC50: 1100 nM
[1]; read-out: RSV EC50, Table 2a
  EC50: 1090 nM
MT4 cytotoxicity (CC50); MT4 CC50, Table 2a
  CC50: 50000 nM

## CCCCCCCCCCCCCCCCCCOC[C@H](COP(=O)(O)OC[C@H]1O[C@@](C#N)(c2ccc3c(N)ncnn23)[C@H](O)[C@@H]1O)OCc1ccc(C#N)cn1 [Example 124, [(2R,3S,4R,5R)-5-(4-Aminopyrrolo[2,1-f][1,2,4]triazin-7-yl)-5-cyano-3,4-dihydroxy-tetrahydrofuran-2-yl]methyl [(2R)-2-[(5-cyano-2-pyridyl)methoxy]-3-octadecoxy-propyl] hydrogen phosphate]
SARS-CoV-2; [2]
  EC50: 200 nM
[1]; read-out: RSV EC50, Table 4
  EC50: 27 nM
MT4 cytotoxicity (CC50); MT4 CC50, Table 4
  CC50: 703 nM

## CCCCCCCCCCCCCCCCCOC[C@H](COP(=O)(O)OC[C@H]1O[C@@](C#N)(c2ccc3c(N)ncnn23)[C@H](O)[C@@H]1O)OCc1ccccc1 [Example 6, ((2R,3S,4R,5R)-5-(4-aminopyrrolo[2,1-f][1,2,4]triazin-7-yl)-5-cyano-3,4-dihydroxytetrahydrofuran-2-yl)methyl ((R)-2-(benzyloxy)-3-(heptadecyloxy)propyl) hydrogen phosphate]
SARS-CoV-2; Severe acute respiratory syndrome coronavirus 2, 48 h, read-out: SARS-CoV-2 EC50
  EC50: 950 nM
[1]; 72 h, read-out: RSV-Fluc EC50 (NHBE), NHBE cells, three days, Table 1
  EC50: 80 nM
MT4 cytotoxicity (CC50); MT4 CC50, Table 1a
  CC50: 4150 nM

## CCCCCCCCCCCCCCCCCOC[C@H](COP(=O)(O)OC[C@H]1O[C@@](C#N)(c2ccc3c(N)ncnn23)[C@H](O)[C@@H]1O)OCc1ccc(C#N)cc1 [Example 36, ((2R,3S,4R,5R)-5-(4-aminopyrrolo[2,1-f][1,2,4]triazin-7-yl)-5-cyano-3,4-dihydroxytetrahydrofuran-2-yl)methyl ((R)-2-((4-cyanobenzyl)oxy)-3-(heptadecyloxy)propyl) hydrogen phosphate]
SARS-CoV-2; [2]
  EC50: 404 nM
[1]; read-out: RSV EC50, Table 2a
  EC50: 17 nM
MT4 cytotoxicity (CC50); MT4 CC50, Table 2a
  CC50: 530 nM

## CCCCCCCCCCCCCCCCCCOC[C@H](COP(=O)(O)OC[C@H]1O[C@@](C#N)(c2ccc3c(N)ncnn23)[C@H](O)[C@@H]1O)OCc1ccc2ccccc2n1 [Example 92, ((2R,3S,4R,5R)-5-(4-aminopyrrolo[2,1-f][1,2,4]triazin-7-yl)-5-cyano-3,4-dihydroxytetrahydrofuran-2-yl)methyl ((R)-3-(octadecyloxy)-2-(quinolin-2-ylmethoxy)propyl) hydrogen phosphate]
SARS-CoV-2; [2]
  EC50: 120 nM
[1]; read-out: RSV EC50, Table 4
  EC50: 38 nM
MT4 cytotoxicity (CC50); MT4 CC50, Table 4
  CC50: 1760 nM

## CCCCCCCCCCCCCCCCCCOC[C@H](COP(=O)(O)OC[C@H]1O[C@@](C#N)(c2ccc3c(N)ncnn23)[C@H](O)[C@@H]1O)OCc1ccc(F)c(C#N)c1 [Example 98, [(2R,3S,4R,5R)-5-(4-aminopyrrolo[2,1-f][1,2,4]triazin-7-yl)-5-cyano-3,4-dihydroxy-tetrahydrofuran-2-yl]methyl [(2R)-2-[(3-cyano-4-fluoro-phenyl)methoxy]-3-octadecoxy-propyl] hydrogen phosphate]
SARS-CoV-2; [2]
  EC50: 1300 nM
[1]; read-out: RSV EC50, Table 4
  EC50: 1000 nM
MT4 cytotoxicity (CC50); MT4 CC50, Table 4
  CC50: 8980 nM

## CCCCCCCCCCCCCCOC[C@H](COP(=O)(O)OC[C@H]1O[C@@](C#N)(c2ccc3c(N)ncnn23)[C@H](O)[C@@H]1O)OCc1ccc(C#N)cc1F [Example 101, [(2R,3S,4R,5R)-5-(4-aminopyrrolo[2,1-f][1,2,4]triazin-7-yl)-5-cyano-3,4-dihydroxy-tetrahydrofuran-2-yl]methyl [(2R)-2-[(4-cyano-2-fluoro-phenyl)methoxy]-3-tetradecoxy-propyl] hydrogen phosphate]
SARS-CoV-2; [2]
  EC50: 130 nM
[1]; read-out: RSV EC50, Table 4
  EC50: 20 nM
MT4 cytotoxicity (CC50); MT4 CC50, Table 4
  CC50: 5110 nM

## CCCCCCCCCCCCCCCOC[C@H](COP(=O)(O)OC[C@H]1O[C@@](C#N)(c2ccc3c(N)ncnn23)[C@H](O)[C@@H]1O)OCc1cc(F)cc(C#N)c1 [Example 118, [(2R,3S,4R,5R)-5-(4-Aminopyrrolo[2,1-f][1,2,4]triazin-7-yl)-5-cyano-3,4-dihydroxy-tetrahydrofuran-2-yl]methyl [(2R)-2-[(3-cyano-5-fluoro-phenyl)methoxy]-3-pentadecoxy-propyl] hydrogen phosphate]
SARS-CoV-2; [2]
  EC50: 120 nM
[1]; read-out: RSV EC50, Table 4
  EC50: 37 nM
MT4 cytotoxicity (CC50); MT4 CC50, Table 4
  CC50: 291 nM

## CC(C)CCCCCCCCCCCCCCOC[C@H](COP(=O)(O)OC[C@H]1O[C@@](C#N)(c2ccc3c(N)ncnn23)[C@H](O)[C@@H]1O)OCc1ccccc1 [Example 24, ((2R,3S,4R,5R)-5-(4-aminopyrrolo[2,1-f][1,2,4]triazin-7-yl)-5-cyano-3,4-dihydroxytetrahydrofuran-2-yl)methyl ((R)-2-(benzyloxy)-3-((15-methylhexadecyl)oxy)propyl) hydrogen phosphate]
SARS-CoV-2; [2]
  EC50: 3320 nM
[1]; [3]
  EC50: 42 nM
[1]; read-out: RSV EC50, Table 2a
  EC50: 42 nM
MT4 cytotoxicity (CC50); MT4 CC50, Table 2a
  CC50: 2200 nM

## CCCCCCCCCCCCCCCCCCOC[C@H](COP(=O)(O)OC[C@H]1O[C@@](C#N)(c2ccc3c(N)ncnn23)[C@H](O)[C@@H]1O)OCc1ccc(C#N)cc1Cl [Example 103, [(2R,3S,4R,5R)-5-(4-Aminopyrrolo[2,1-f][1,2,4]triazin-7-yl)-5-cyano-3,4-dihydroxy-tetrahydrofuran-2-yl]methyl [(2R)-2-[(2-chloro-4-cyano-phenyl)methoxy]-3-octadecoxy-propyl] hydrogen phosphate]
SARS-CoV-2; [2]
  EC50: 10000 nM
[1]; read-out: RSV EC50, Table 4
  EC50: 387 nM
MT4 cytotoxicity (CC50); MT4 CC50, Table 4
  CC50: 50000 nM

## CCCCCCCCCCCCCCCCCOC[C@H](COP(=O)(O)OC[C@H]1O[C@@](C#N)(c2ccc3c(N)ncnn23)[C@H](O)[C@@H]1O)OCc1cccc(C#N)c1 [Example 34, ((2R,3S,4R,5R)-5-(4-aminopyrrolo[2,1-f][1,2,4]triazin-7-yl)-5-cyano-3,4-dihydroxytetrahydrofuran-2-yl)methyl ((R)-2-((3-cyanobenzyl)oxy)-3-(heptadecyloxy)propyl) hydrogen phosphate]
SARS-CoV-2; [2]
  EC50: 582 nM
[1]; read-out: RSV EC50, Table 2a
  EC50: 25 nM
MT4 cytotoxicity (CC50); MT4 CC50, Table 2a
  CC50: 550 nM

## CCCCCCCCCCCCCCCCCCOC[C@H](COP(=O)(O)OC[C@H]1O[C@@](C#N)(c2ccc3c(N)ncnn23)[C@H](O)[C@@H]1O)OCc1ccc(OC)c(C#N)c1 [Example 115, [(2R,3S,4R,5R)-5-(4-Aminopyrrolo[2,1-f][1,2,4]triazin-7-yl)-5-cyano-3,4-dihydroxy-tetrahydrofuran-2-yl]methyl [(2R)-2-[(3-cyano-4-methoxy-phenyl)methoxy]-3-octadecoxy-propyl] hydrogen phosphate]
SARS-CoV-2; [2]
  EC50: 390 nM
[1]; read-out: RSV EC50, Table 4
  EC50: 166 nM
MT4 cytotoxicity (CC50); MT4 CC50, Table 4
  CC50: 1460 nM

## CCCCCCCCCCCCCCCCCCOC[C@H](COP(=O)(O)OC[C@H]1O[C@@](C#N)(c2ccc3c(N)ncnn23)[C@H](O)[C@@H]1O)OCc1ccc(C#N)cc1C(F)(F)F [Example 105, [(2R,3S,4R,5R)-5-(4-Aminopyrrolo[2,1-f][1,2,4]triazin-7-yl)-5-cyano-3,4-dihydroxy-tetrahydrofuran-2-yl]methyl [(2R)-2-[[4-cyano-2-(trifluoromethyl)phenyl]methoxy]-3-octadecoxy-propyl] hydrogen phosphate]
SARS-CoV-2; [2]
  EC50: 10000 nM
[1]; read-out: RSV EC50, Table 4
  EC50: 553 nM
MT4 cytotoxicity (CC50); MT4 CC50, Table 4
  CC50: 20100 nM

## CCCCCCCCCCCCCCCCCCOC[C@H](COP(=O)(O)OC[C@H]1O[C@@](C#N)(c2ccc3c(N)ncnn23)[C@H](O)[C@@H]1O)Oc1cccc(C#N)n1 [Example 100, [(2R,3S,4R,5R)-5-(4-aminopyrrolo[2,1-f][1,2,4]triazin-7-yl)-5-cyano-3,4-dihydroxy-tetrahydrofuran-2-yl]methyl [(2R)-2-[(6-cyano-2-pyridyl)oxy]-3-octadecoxy-propyl]hydrogen phosphate]
SARS-CoV-2; [2]
  EC50: 340 nM
[1]; read-out: RSV EC50, Table 4
  EC50: 58 nM
MT4 cytotoxicity (CC50); MT4 CC50, Table 4
  CC50: 1180 nM

## CCCCCCCCCCCCCCCCCOCCCCOP(=O)(O)OC[C@H]1O[C@@](C#N)(c2ccc3c(N)ncnn23)[C@H](O)[C@@H]1O [Example 121, [(2R,3S,4R,5R)-5-(4-Aminopyrrolo[2,1-f][1,2,4]triazin-7-yl)-5-cyano-3,4-dihydroxy-tetrahydrofuran-2-yl]methyl 4-heptadecoxybutyl hydrogen phosphate]
SARS-CoV-2; [2]
  EC50: 8900 nM
[1]; read-out: RSV EC50, Table 4
  EC50: 262 nM
MT4 cytotoxicity (CC50); MT4 CC50, Table 4
  CC50: 10400 nM

## CCCCCCCCCCCCCCCCCCOC[C@H](COP(=O)(O)OC[C@H]1O[C@@](C#N)(c2ccc3c(N)ncnn23)[C@H](O)[C@@H]1O)Oc1cnc(C#N)cn1 [Example 77, ((2R,3S,4R,5R)-5-(4-aminopyrrolo[2,1-f][1,2,4]triazin-7-yl)-5-cyano-3,4-dihydroxytetrahydrofuran-2-yl)methyl ((R)-2-((5-cyanopyrazin-2-yl)oxy)-3-(octadecyloxy)propyl) hydrogen phosphate]
SARS-CoV-2; [2]
  EC50: 31 nM
[1]; read-out: RSV EC50, Table 4
  EC50: 7 nM
MT4 cytotoxicity (CC50); MT4 CC50, Table 4
  CC50: 196 nM
